According to patent publication US20230147257A1 (DONG-A ST CO., LTD., priority 2020, published 2023):
Structures can show the parent of a compound that is named as a salt. Where two headings read alike, the source gives them in different places.

Molecular target: T1, AhR (Homo sapiens, UniProt P35869)
T1 construct: host or cells: HepG2
T1 sequence (P35869 11-848): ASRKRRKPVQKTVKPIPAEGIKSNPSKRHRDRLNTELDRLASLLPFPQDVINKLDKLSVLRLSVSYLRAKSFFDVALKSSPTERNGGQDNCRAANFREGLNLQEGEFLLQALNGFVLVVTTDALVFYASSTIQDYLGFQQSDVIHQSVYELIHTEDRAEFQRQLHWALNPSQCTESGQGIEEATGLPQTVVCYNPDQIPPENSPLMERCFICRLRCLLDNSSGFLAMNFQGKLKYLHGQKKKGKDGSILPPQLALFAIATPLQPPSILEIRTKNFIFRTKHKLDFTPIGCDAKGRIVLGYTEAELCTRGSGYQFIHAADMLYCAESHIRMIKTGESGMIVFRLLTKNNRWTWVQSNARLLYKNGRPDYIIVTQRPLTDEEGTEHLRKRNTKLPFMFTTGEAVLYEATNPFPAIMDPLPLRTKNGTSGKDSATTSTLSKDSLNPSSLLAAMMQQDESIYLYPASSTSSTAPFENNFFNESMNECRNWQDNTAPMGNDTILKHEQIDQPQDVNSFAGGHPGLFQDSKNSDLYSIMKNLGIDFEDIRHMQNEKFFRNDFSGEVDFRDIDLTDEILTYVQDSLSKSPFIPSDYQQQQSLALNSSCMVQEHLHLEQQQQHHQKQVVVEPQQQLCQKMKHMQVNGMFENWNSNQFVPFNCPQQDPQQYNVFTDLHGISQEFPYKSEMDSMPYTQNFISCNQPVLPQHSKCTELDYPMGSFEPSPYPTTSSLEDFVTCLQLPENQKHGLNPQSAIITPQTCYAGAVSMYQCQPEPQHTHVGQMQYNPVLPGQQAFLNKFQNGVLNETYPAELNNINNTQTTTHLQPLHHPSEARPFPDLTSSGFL
Test: In vitro assay 1: XRE-luciferase reporter assay, antagonism in human cell line (HepG2)
Assay type: cell-based
Source text: In Vitro XRE-Luciferase Reporter Assay (In Vitro Assay 1, 2, 3)
AhR activation leads the induction of target gene expression such as CYP1A1 and CYP1B1 by AhR binding to AhR-responsive DNA elements also known as xenobiotics responsive elements (XRE). The assay for measuring AhR activity herein is the luciferase assay using cell lines transfected with luciferase reporter plasmid containing XREs at the upstream of the reporter gene. Cells transfected with XRE-luciferase reporter (XRE-Luc) plasmid drive luciferase activity reflecting activation and inhibition of AhR in the cells. In addition to transfection with XRE-reporter vector, cells were co-transfected with Nano-luciferase reporter gene construct (Nano-Luc) containing constitutively active promoter as internal control. Kynurenine (an endogenous AhR agonist) was used to stimulate cells to test antagonistic properties of the compounds. The half-maximal inhibitory concentration (IC50) or half-maximal effective concentration (EC50) value was calculated using nonlinear regression (four parameters) with Prism8.0 software (GraphPad).
In Vitro Assay 1: Antagonism in Human Cell Line
HepG2 (human hepatoma cell line) cell line with a XRE-luciferase reporter either transiently or stably (Invivogen) were plated in complete medium and incubated at 37° C. in a CO2 incubator. After 24 hours, cells were treated with kynurenine (50* or 200 μM) alone (negative control) or with test compounds for 6 hours. Luciferase activity was measured with a commercial kit such as the Promega Luciferase kit or other reagents for measuring luciferase activity. Relative luciferase activity (Firefly/Nano-Luc) was used to calculate IC50 values. The relative luciferase activity was further normalized with kynurenine alone group as the maximum control and the vehicle group as the minimum control. (IC50 values are grouped as A, B, C and D, whereby A: IC50<0.01 μM; B: 0.01<IC50<0.1 μM; C: 0.1<IC50<1.0 μM; D: IC50>1.0 μM)

[1] = HepG2 XRE-luciferase, cells treated with kynurenine 50 μM (*), 6 hours, read-out: Assay 1: AhR-Luc Human Antagonism (IC50)
[2] = HepG2 XRE-luciferase, cells treated with kynurenine 200 μM (no *), 6 hours, read-out: Assay 1: AhR-Luc Human Antagonism (IC50)

IC50 [2]	SMILES	other results
< 10 nM	Cn1cc(-c2nc(-c3ccc(C(F)(F)F)cc3)cc3c(=O)n(-c4cccc(O)c4)cnc23)cn1 [Example 27, 3-(3-hydroxyphenyl)-8-(1-methyl-1H-pyrazol-4-yl)-6-(4-(trifluoromethyl)phenyl)pyrido[3,4-d]pyrimidin-4(3H)-one]	–
< 10 nM	O=c1c2cc(-c3ccc(C(F)(F)F)cc3)nc(-c3cccnc3)c2ncn1C(CO)CO [Example 69, 3-(1,3-dihydroxypropan-2-yl)-8-(pyridin-3-yl)-6-(4-(trifluoromethyl)phenyl)pyrido[3,4-d]pyrimidin-4(3H)-one]	–
< 10 nM	Cn1cc(-c2nc(-c3ccc(Cl)cc3)cc3c(=O)n(CC(O)C(F)(F)F)cnc23)cn1 (stereo not drawn) [Example 23, 6-(4-chlorophenyl)-8-(1-methyl-1H-pyrazol-4-yl)-3-(3,3,3-trifluoro-2-hydroxypropyl)pyrido[3,4-d]pyrimidin-4(3H)-one]	–
< 10 nM	O=c1c2cc(-c3ccc(C(F)(F)F)cc3)nc(-c3cccnc3)c2ncn1C1CCNCC1 [Example 93, 3-(piperidin-4-yl)-8-(pyridin-3-yl)-6-(4-(trifluoromethyl)phenyl)pyrido[3,4-d]pyrimidin-4(3H)-one]	–
10 to 100 nM	Cn1cc(-c2nc(-c3ccc(Cl)cc3)cc3c(=O)n(C4CCCC(O)C4)cnc23)cn1 (stereo not drawn) [Example 64, 6-(4-chlorophenyl)-3-(3-hydroxycyclohexyl)-8-(1-methyl-1H-pyrazol-4-yl)pyrido[3,4-d]pyrimidin-4(3H)-one]	–
< 10 nM	O=c1c2cc(-c3ccc(N4CCOCC4)cc3)nc(-c3cccnc3)c2ncn1[C@@H]1CC[C@H](O)C1 [Example 73, 3-((1R,3S)-3-hydroxycyclopentyl)-6-(4-morpholinophenyl)-8-(pyridin-3-yl)pyrido[3,4-d]pyrimidin-4(3H)-one]	–
10 to 100 nM	CC(CO)N1CNc2c(cc(-c3ccc(Cl)cc3)nc2-c2cccnc2)C1=O (stereo not drawn) [Example 60]	–
> 1000 nM	CC(C)C(CO)n1cnc2c(-c3cccnc3)nc(-c3ccc(Cl)cc3)cc2c1=O (stereo not drawn) [Example 41, 6-(4-chlorophenyl)-3-(1-hydroxy-3-methylbutan-2-yl)-8-(pyridin-3-yl)pyrido[3,4-d]pyrimidin-4(3H)-one]	–
< 10 nM	O=c1c2cc(-c3ccc(C(F)(F)F)cc3)nc(-c3cccnc3)c2ncn1[C@@H]1CC[C@H](O)C1 [Example 29, 3-((1R,3S)-3-hydroxycyclopentyl)-8-(pyridin-3-yl)-6-(4-(trifluoromethyl)phenyl)pyrido[3,4-d]pyrimidin-4(3H)-one]	–
< 10 nM	O=c1c2cc(-c3ccc(N4CCOCC4)cc3)nc(-c3cccnc3)c2ncn1C(CO)CO [Example 80, 3-(1,3-dihydroxypropan-2-yl)-6-(4-morpholinophenyl)-8-(pyridin-3-yl)pyrido[3,4-d]pyrimidin-4(3H)-one]	–
< 10 nM	O=c1c2cc(-c3ccc(Cl)cc3)nc(-c3cccnc3)c2ncn1-c1cccc(O)c1 [Example 61, 6-(4-chlorophenyl)-3-(3-hydroxyphenyl)-8-(pyridin-3-yl)pyrido[3,4-d]pyrimidin-4(3H)-one]	–

The remaining lines, values behind:

SMILES	IC50 [2]	other results
CC(CO)n1cnc2c(-c3ccc(Cl)cc3)nc(-c3cccnc3)cc2c1=O (stereo not drawn) [Example 5, 8-(4-chlorophenyl)-3-(1-hydroxypropan-2-yl)-6-(pyridin-3-yl)pyrido[3,4-d]pyrimidin-4(3H)-one]	–	IC50 [1]: > 1000 nM
CCOP(=O)(OCC)OCC(C)n1cnc2c(-c3cccnc3)nc(-c3ccc(Cl)cc3)cc2c1=O (stereo not drawn) [Example 47, 2-(6-(4-chlorophenyl)-4-oxo-8-(pyridin-3-yl)pyrido[3,4-d]pyrimidin-3(4H)-yl)propyl diethyl phosphate]	–	IC50: 10 to 100 nM
CC(O)Cn1cnc2c(-c3cnn(C)c3)nc(-c3cnn(C)c3)cc2c1=O (stereo not drawn) [Example 11, 3-(2-hydroxypropyl)-6,8-bis(1-methyl-1H-pyrazol-4-yl)pyrido[3,4-d]pyrimidin-4(3H)-one]	–	IC50 [1]: 100 to 1000 nM
O=c1c2cc(-c3ccc(C(F)(F)F)nc3)nc(-c3cccnc3)c2ncn1[C@@H]1CC[C@H](O)C1 [Example 65, 3-((1R,3S)-3-hydroxycyclopentyl)-8-(pyridin-3-yl)-6-(6-(trifluoromethyl)pyridin-3-yl)pyrido[3,4-d]pyrimidin-4(3H)-one]	< 10 nM	–
O=c1c2cc(-c3ccc(Cl)cc3)nc(-c3cccnc3)c2ncn1CC(O)C(F)(F)F (stereo not drawn) [Example 24, 6-(4-chlorophenyl)-8-(pyridin-3-yl)-3-(3,3,3-trifluoro-2-hydroxypropyl)pyrido[3,4-d]pyrimidin-4(3H)-one]	< 10 nM	–
CC(C)C(CO)n1cnc2c(-c3cccnc3)nc(-c3ccc(C(F)(F)F)cc3)cc2c1=O (stereo not drawn) [Example 42, 3-(1-hydroxy-3-methylbutan-2-yl)-8-(pyridin-3-yl)-6-(4-(trifluoromethyl)phenyl)pyrido[3,4-d]pyrimidin-4(3H)-one]	> 1000 nM	–
CC(C)(O)Cn1cnc2c(-c3cccnc3)nc(-c3ccc(C(F)(F)F)nc3)cc2c1=O [Example 40, 3-(2-hydroxy-2-methylpropyl)-8-(pyridin-3-yl)-6-(6-(trifluoromethyl)pyridin-3-yl)pyrido[3,4-d]pyrimidin-4(3H)-one]	< 10 nM	–
O=c1c2cc(-c3ccc(C(F)(F)F)cc3)nc(-c3cccnc3)c2ncn1[C@H]1CCCC[C@H]1O [Example 15, 3-((1S,2R)-2-hydroxycyclohexyl)-8-(pyridin-3-yl)-6-(4-(trifluoromethyl)phenyl)pyrido[3,4-d]pyrimidin-4(3H)-one]	> 1000 nM	–
O=c1c2cc(-c3ccc(Cl)cc3)nc(-c3cccnc3)c2ncn1C1CCCC(O)C1 (stereo not drawn) [Example 63, 6-(4-chlorophenyl)-3-(3-hydroxycyclohexyl)-8-(pyridin-3-yl)pyrido[3,4-d]pyrimidin-4(3H)-one]	< 10 nM	–
Cn1cc(-c2cc3c(=O)n(C4CCCC(O)C4)cnc3c(-c3cnn(C)c3)n2)cn1 (stereo not drawn) [Example 2, 3-(3-hydroxycyclohexyl)-6,8-bis(1-methyl-1H-pyrazol-4-yl)pyrido[3,4-d]pyrimidin-4(3H)-one]	–	IC50 [1]: 100 to 1000 nM
CC(O)Cn1cnc2c(-c3cnn(C)c3)nc(-c3ccc(C(F)(F)F)cc3)cc2c1=O (stereo not drawn) [Example 12, 3-(2-hydroxypropyl)-8-(1-methyl-1H-pyrazol-4-yl)-6-(4-(trifluoromethyl)phenyl)pyrido[3,4-d]pyrimidin-4(3H)-one]	–	IC50 [1]: < 10 nM
CC(=O)OCC(C)n1cnc2c(-c3ccc(Cl)cc3)nc(Cl)cc2c1=O (stereo not drawn) [Example 7, 2-(6-chloro-8-(4-chlorophenyl)-4-oxopyrido[3,4-d]pyrimidin-3(4H)-yl)propyl acetate]	–	IC50 [1]: > 1000 nM
O=c1c2cc(-c3ccc(C(F)(F)F)cc3)nc(-c3cccnc3)c2ncn1C[C@@H](O)CO [Example 81, (R)-3-(2,3-dihydroxypropyl)-8-(pyridin-3-yl)-6-(4-(trifluoromethyl)phenyl)pyrido[3,4-d]pyrimidin-4(3H)-one]	< 10 nM	–
O=c1c2cc(-c3ccc(Cl)cc3)nc(-c3cccnc3)c2ncn1[C@@H]1CC[C@H](O)C1 [Example 28, 6-(4-chlorophenyl)-3-((1R,3S)-3-hydroxycyclopentyl)-8-(pyridin-3-yl)pyrido[3,4-d]pyrimidin-4(3H)-one]	< 10 nM	–
Cn1cc(-c2nc(-c3ccc(Cl)cc3)cc3c(=O)n([C@H]4CC[C@@H](O)C4)cnc23)cn1 [Example 34, 6-(4-chlorophenyl)-3-((1S,3R)-3-hydroxycyclopentyl)-8-(1-methyl-1H-pyrazol-4-yl)pyrido[3,4-d]pyrimidin-4(3H)-one]	< 10 nM	–
CC(C(=O)O)n1cnc2c(-c3cccnc3)nc(-c3ccc(Cl)cc3)cc2c1=O (stereo not drawn) [Example 83, 2-(6-(4-chlorophenyl)-4-oxo-8-(pyridin-3-yl)pyrido[3,4-d]pyrimidin-3(4H)-yl)propanoic acid, 2,2,2-trifluoroacetic acid salt]	100 to 1000 nM	–
